Assay results published in PubChem BioAssay (NCI).
Values joined by “and” are separate entries in the source; they are usually repeats but may differ in a detail not shown here. Equal values may be shown once.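 Five concentrations, 48 hours, 96-well plates. The concentration for 50% growth inhibition is given as GI50. At the TGI there is no net growth.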

Legend:
Assay in all cases: growth of human tumour cells (NCI), 48 h
CAKI-1 renal = tested on: CAKI-1 renal
HOP-62 NSCLC = tested on: HOP-62 NSCLC
HT29 colon = tested on: HT29 colon
LOX IMVI melanoma = tested on: LOX IMVI melanoma
MCF7 breast = tested on: MCF7 breast
OVCAR-3 ovarian = tested on: OVCAR-3 ovarian
SF-539 CNS = tested on: SF-539 CNS
SK-OV-3 ovarian = tested on: SK-OV-3 ovarian
SNB-19 CNS = tested on: SNB-19 CNS
U251 CNS = tested on: U251 CNS

Row | Compound | GI50 (CAKI-1 renal) [µM] | TGI (CAKI-1 renal) [µM] | GI50 (HOP-62 NSCLC) [µM] | TGI (HOP-62 NSCLC) [µM] | GI50 (HT29 colon) [µM] | TGI (HT29 colon) [µM] | GI50 (LOX IMVI melanoma) [µM] | TGI (LOX IMVI melanoma) [µM] | GI50 (MCF7 breast) [µM] | TGI (MCF7 breast) [µM] | GI50 (OVCAR-3 ovarian) [µM] | TGI (OVCAR-3 ovarian) | GI50 (SF-539 CNS) [µM] | TGI (SF-539 CNS) [µM] | GI50 (SK-OV-3 ovarian) [µM] | TGI (SK-OV-3 ovarian) | GI50 (SNB-19 CNS) [µM] | TGI (SNB-19 CNS) [µM] | GI50 (U251 CNS) [µM] | TGI (U251 CNS) [µM]
1 | CCN(CC)CCOc1ccc(C(=O)/C=C\c2ccc(Cl)cc2Cl)cc1 | 10.5 | 22.3 | 11 | 24.9 | 2.06 | 5.62 | 1.78 | 3.6 | 1.29 | 3.12 | 3.84 | 14.3 µM | 4.05 | 16.4 | 11.8 | 24.3 µM | 6.81 | 24.4 | 7.16 | 21.3
2 | Cn1c(=O)c(Oc2ccc(F)cc2F)cc2cnc(NCCS(C)(=O)=O)nc21 | > 25 | > 25 | > 25 | > 25 | > 25 | > 25 | > 25 | > 25 | > 25 | > 25 | > 25 | > 25 µM | > 25 | > 25 | > 25 | > 25 µM | > 25 | > 25 | > 25 | > 25
3 | O=C(Nc1ccc(I)cc1F)c1cc(Cl)ccc1O | 0.305 | 2.34 | 2.21 | 8 | 3.29 | 27.3 | 0.424 | 2.18 | 0.552 | > 19.8 | 0.413 | 10.7 µM | 0.409 | 3.89 | 0.615 | 2.64 µM | 0.372 | > 100 | 0.59 | > 100
4 | CN1C(Cl)=NS(=O)(=O)c2ccccc21 |  | 36.6 |  | > 100 |  | > 100 |  | > 100 |  | > 100 |  | > 100 µM |  | > 100 |  | > 100 µM |  | > 100 |  | > 100
5 | O=C1OC(CN2CCOCC2)CN1/N=C/c1ccc([N+](=O)[O-])o1 (stereo unspecified) |  | > 100 |  | > 100 |  | > 100 |  | 59.6 |  | > 100 |  | 67.4 µM |  | > 100 |  | > 100 µM |  | > 100 |  | 98.6
6 | CNC(=O)OCC1C2=C(C(=O)C(C)=C(N)C2=O)N2CC3C(N3C)C12OC (stereo unspecified) |  | 32.7 |  | > 100 |  | 34.7 |  | 33.9 |  | > 100 |  | > 100 µM |  | 87.5 |  | > 100 µM |  | > 100 |  | 45.7
7 | CC(=O)Oc1ccc(C(c2ccc(OC(C)=O)cc2)c2ccccn2)cc1 | 46.8 | > 100 | > 58.3 | > 100 |  | > 100 | 52.7 | > 100 | 0.516 | > 100 | 9.94 | 98.9 µM and 23.2 µM |  | > 100 | 31.7 | > 100 µM and 98.3 µM |  | > 100 |  | > 100
8 | O=C1NCCS(=O)(=O)/C1=C\C=C\c1cccc(C(F)(F)F)c1 | 2.22 | 10.2 | 3.72 | 12.7 | 2.3 | 5.38 | 1.23 | 2.61 | 0.188 | 11 | 2.85 | 11.4 µM | 2.83 | 10.1 | 5.83 | 18.3 µM | 2.62 | 10.7 | 1.67 | 3.86
9 | Cc1cccc2c(N)c3ccccc3nc12 | 0.966 | 11.6 | 0.854 | 5.3 | 0.593 | 3.58 | 0.616 | 3.66 | 1.32 | 11.6 | 2.13 | 10 µM | 1.09 | 4.28 | 2.12 | 17.4 µM | 2.06 | 16.7 | 2.19 | 7.84
